The values below come from US20050020630A1, “Cycloalkyl and heterocycloalkyl substituted benzothiophenes as therapeutic agents” (priority 2003, published 2005).

The structures appear in SMILES notation.

For orientation: IC50 means the concentration at which inhibition is half-maximal.

The target of the experiment is T1, PI3Kγ (Homo sapiens, UniProt P48736).
T1 construct: HA; made in house; host or cells: Spodoptera frugiperda (Sf9) cells, baculovirus co-infection
T1 sequence (P48736 whole entry, species assumed): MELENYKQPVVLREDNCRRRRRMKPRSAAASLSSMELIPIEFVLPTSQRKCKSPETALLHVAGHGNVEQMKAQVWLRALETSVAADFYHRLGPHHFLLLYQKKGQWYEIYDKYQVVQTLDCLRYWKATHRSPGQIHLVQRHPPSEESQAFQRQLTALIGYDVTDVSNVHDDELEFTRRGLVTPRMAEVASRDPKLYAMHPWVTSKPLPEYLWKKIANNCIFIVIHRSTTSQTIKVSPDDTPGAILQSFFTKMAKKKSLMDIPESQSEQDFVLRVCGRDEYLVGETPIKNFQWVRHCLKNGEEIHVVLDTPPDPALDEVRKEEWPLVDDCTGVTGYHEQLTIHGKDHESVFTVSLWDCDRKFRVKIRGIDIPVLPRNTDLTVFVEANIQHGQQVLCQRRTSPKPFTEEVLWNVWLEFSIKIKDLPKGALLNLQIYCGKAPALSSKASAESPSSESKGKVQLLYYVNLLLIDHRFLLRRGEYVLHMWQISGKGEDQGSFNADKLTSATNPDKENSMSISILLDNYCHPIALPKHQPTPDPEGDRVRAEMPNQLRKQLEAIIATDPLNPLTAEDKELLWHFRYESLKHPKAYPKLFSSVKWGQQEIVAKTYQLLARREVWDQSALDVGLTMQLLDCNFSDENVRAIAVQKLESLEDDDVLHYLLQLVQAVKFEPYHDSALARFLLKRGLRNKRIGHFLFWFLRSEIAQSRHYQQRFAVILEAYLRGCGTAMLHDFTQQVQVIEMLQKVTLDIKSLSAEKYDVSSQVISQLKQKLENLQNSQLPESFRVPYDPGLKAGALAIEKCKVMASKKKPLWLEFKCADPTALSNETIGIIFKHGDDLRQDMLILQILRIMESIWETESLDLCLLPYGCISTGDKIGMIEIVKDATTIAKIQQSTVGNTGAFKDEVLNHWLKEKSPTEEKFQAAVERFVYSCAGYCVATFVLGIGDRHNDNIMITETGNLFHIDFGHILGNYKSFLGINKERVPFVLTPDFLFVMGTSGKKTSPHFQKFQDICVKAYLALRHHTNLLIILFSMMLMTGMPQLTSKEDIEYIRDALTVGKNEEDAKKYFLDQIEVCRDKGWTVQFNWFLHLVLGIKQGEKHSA
T1 sequence (Q8WYR1 whole entry partner, species assumed): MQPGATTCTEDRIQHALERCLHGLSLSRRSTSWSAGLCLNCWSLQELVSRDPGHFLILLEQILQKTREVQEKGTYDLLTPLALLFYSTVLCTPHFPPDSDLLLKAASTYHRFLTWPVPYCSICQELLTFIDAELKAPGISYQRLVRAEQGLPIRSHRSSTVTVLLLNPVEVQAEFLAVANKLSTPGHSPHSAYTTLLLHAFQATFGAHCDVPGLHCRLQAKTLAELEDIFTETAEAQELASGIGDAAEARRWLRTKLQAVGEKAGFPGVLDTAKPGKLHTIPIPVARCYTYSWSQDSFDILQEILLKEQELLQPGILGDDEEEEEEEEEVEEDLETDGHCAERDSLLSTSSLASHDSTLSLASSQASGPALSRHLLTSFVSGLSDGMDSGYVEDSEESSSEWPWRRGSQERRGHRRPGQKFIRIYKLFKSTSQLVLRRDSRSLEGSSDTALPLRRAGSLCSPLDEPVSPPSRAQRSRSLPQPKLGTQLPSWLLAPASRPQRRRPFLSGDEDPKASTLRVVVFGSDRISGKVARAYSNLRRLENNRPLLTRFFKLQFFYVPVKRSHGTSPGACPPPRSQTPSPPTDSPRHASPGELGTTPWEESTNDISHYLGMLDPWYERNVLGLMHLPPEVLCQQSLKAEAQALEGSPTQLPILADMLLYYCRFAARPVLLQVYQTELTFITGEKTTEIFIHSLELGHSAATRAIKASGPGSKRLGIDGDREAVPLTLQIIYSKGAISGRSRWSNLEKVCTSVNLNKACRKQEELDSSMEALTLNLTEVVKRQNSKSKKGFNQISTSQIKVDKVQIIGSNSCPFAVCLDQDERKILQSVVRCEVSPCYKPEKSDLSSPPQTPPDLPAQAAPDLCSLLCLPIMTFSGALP
Briefly: PI3Kγ In Vitro Kinase Assay. The experiment is classed as biochemical. Conditions: purified recombinant p101/p110 γ protein with G protein β1/γ2 subunits; 20 μM ATP, 25 μM PIP2; 20 minutes at room temperature; radioactive PIP3 readout. As to the method:
Spodtera frugiperda cells, grown in ESF921 media, were coinfected with baculovirus expressing a glu-tagged p101 and baculovirus expressing an HA-tagged p110γ, at a 3:1 ratio of p101 baculovirus to p110γ baculovirus. Sf9 cells were grown to 1×10^7 total cells/mL in 10 L bioreactors and harvested 48-72 hours post infection. Samples of infected cells were then tested for expression of p101/p110 γ PI3 kinase by immunoprecipitation and Western Blot analysis methods (see below). To purify PI3Kγ, 4 volumes of room temperature hypotonic lysis buffer (1 mM MgCl2, 1 mM DTT, 5 mM EGTA, 1 mM Pefabloc, 0.5 μM aprotinin, 5 μM leupeptin, 2 μM pepstatin, 5 μM E64, pH 8) per gram of cell paste, was poured onto frozen cell pellets with stirring, then lysed in a nitrogen “bomb” at 400 psi (599HC […], Parr Instrument Co, Moline, Ill.). NaCl was added to 150 mM, and sodium cholate was added to 1% and mixed for another 45 minutes. The lysates were clarified by centrifugation for 25 minutes at 14,000 rpm. The lysates were then loaded over anti-glu-linked Protein-G Sepaharose beads (Covance Research Products, Richmond, Calif.) using 20 mL resin/50 g cell paste. The column was washed with 15 volumes of wash buffer (1 mM DTT, 0.2 mM EGTA, 1 mM Pefabloc, 0.5 μM aprotinin, 5 μM leupeptin, 2 μM pepstatin, 5 μM E64, 150 mM NaCl, 1% sodium cholate, pH 8). PI3Kγ was eluted with 6 column volumes of wash buffer that contain 100 μg/mL of a peptide that competes for binding of the glu tag. The column fractions with the eluted protein (determined by taking OD280 readings) were collected and dialyzed in 0.2 mM EGTA, 1 mM DTT, 1 mM Pefabloc, 5 μM leupeptin, 0.5% sodium cholate, 150 mM NaCl, and 50% glycerol, pH 8. The fractions were stored at -80° C. until further use. Spodtera frugiperda cells were coinfected with baculovirus expressing a glu-tagged G protein β1 and baculovirus expressing a G protein β2, at a 1:1 ratio of glu-tagged G protein β1 baculovirus to G protein β2 baculovirus. Sf9 cells are grown in 10 L bioreactors and harvested 48-72 hours post infection. Samples of infected cells were tested for G protein β1/β2 expression by Western Blot analysis, as described below. Cell lysates were homogenized and loaded onto a column of glu-tagged beads as in Biological Example 1 and competed off the column with a glu peptide and processed as described in Biological Example 1. The inhibitory properties of the compounds in Table 1 were assayed in an in vitro PI3K assay. In a 96-well polypropylene plate, each well was spotted with 2 μL of 50 times the desired final concentration of compound in DMSO. Purified recombinant p101/p110 γ protein (0.03 μg; 2.7 nM) and G protein β1/γ2 subunits (0.09 μg; 57.7 nM) for each reaction was combined in the assay buffer (30 mM HEPES, 100 mM NaCl, 1 mM EGTA, and 1 mM DTT). ATP and [γ-^32P-ATP] (0.09 μCi) were added to this mixture so that the final ATP concentration in the reaction was 20 μM. Lipid micelles were formed by sonicating phosphatidylinositol-4,5-diphosphate (PIP2), phosphatidylethanolamine (PE), and Na-cholate in the assay buffer for 10 minutes, adding MgCl2 and incubating on ice for 20 minutes, for final concentrations of 25 μM PIP2, 300 μM PE, 0.02% Na-cholate, and 10 mM MgCl2 in the reaction. The reactions were started by adding equal volumes lipid and enzyme mixture in a total volume of 50 μL, allowed to run for 20 minutes at room temperature, and stopped with 100 μL 75 mM H3PO4. The lipid product was transferred to a glass fiber filter plate and washed with 75 mM H3PO4 several times. The presence of radioactive lipid product (PIP3) was measured by adding Wallac Optiphase mix to each well and counting in a Wallac 1450 Trilux plate reader (PerkinElmer Life Sciences Inc., Boston, Mass. 02118). The IC50 for each compound tested is reported in μM in Table 1: […]
Consider `COc1cc2sc(C(=O)Nc3nnn[nH]3)c(OC3CC(C)CC(C)C3)c2cc1OC` (stereo not shown) [Example 24, 3-(3,5-dimethyl-cyclohexyloxy)-5,6-dimethoxy-benzo[b]thiophene-2-carboxylic acid (2H-tetrazol-5-yl)-amide], for which the IC50 is 103 nM. The value for `COc1cc2sc(C(=O)Nc3nnn[nH]3)c(OC3CCCCC3C)c2cc1OC` (stereo not shown) [Example 26, 5,6-Dimethoxy-3-(2-methyl-cyclohexyloxy)-benzo[b]thiophene-2-carboxylic acid (1H-tetrazol-5-yl)-amide] was 101 nM.

Turning to `COc1cc2sc(C(=O)Nc3nnn[nH]3)c(OC3CCOC3)c2cc1OC` (stereo not shown) [Example 27, 5,6-Dimethoxy-3-(tetrahydro-furan-3-yloxy)-benzo[b]thiophene-2-carboxylic acid (1H-tetrazol-5-yl)-amide], the concentration for half-maximal inhibition (IC50) turned out to be 575 nM. For `CCC1(COc2c(C(=O)Nc3nnn[nH]3)sc3cc(OC)c(OC)cc23)COC1` [Example 28, 3-(3-Ethyl-oxetan-3-ylmethoxy)-5,6dimethoxy-benzo[b]thiophene-2-carboxylic acid (1H-tetrazol-5-yl)-amide], the half-maximal inhibitory concentration (IC50) worked out at 245 nM. On to `COc1cc2sc(C(=O)Nc3nnn[nH]3)c(OCC3C4CCC(C4)C3C)c2cc1OC` (stereo not shown) [Example 29, 5,6 Dimethoxy-3-(3-methyl-bicyclo[2.2.1]hept-2-ylmethoxy)-benzo[b]thiophene-2-carboxylic acid (1H-tetrazol-5-yl)-amide], for which the IC50 came to 14 nM.

As to `COc1cc2sc(C(=O)Nc3nnn[nH]3)c(OC3CCC(C4CCCCC4)CC3)c2cc1OC` (stereo not shown) [Example 30, 3-(Bicyclohexyl-4-yloxy)-5,6-dimethoxy-benzo[b]thiophene-2-carboxylic acid (1H-tetrazol-5-yl)-amide], the IC50 worked out at 110 nM.

On to `COc1cc2sc(C(=O)Nc3nnn[nH]3)c(OC3CCC(C)C3)c2cc1OC` (stereo not shown) [Example 31, 5,6-Dimethoxy-3-(3-methyl-cyclopentyloxy)-benzo[b]thiophene-2-carboxylic acid (1H-tetrazol-5-yl)-amide], for which the IC50 came out at 63 nM.

For `COc1cc2sc(C(=O)Nc3nnn[nH]3)c(OCC3CC=CCC3)c2cc1OC` (stereo not shown) [Example 32, 3-(Cyclohex-3-enylmethoxy)-5,6-dimethoxy-benzo[b]thiophene-2-carboxylic acid (1H-tetrazol-5-yl)-amide], the IC50 stood at 101 nM.

Take `COc1cc2sc(C(=O)Nc3nnn[nH]3)c(OC3CCCCCCC3)c2cc1OC` [Example 33, 3-Cyclooctyloxy-5,6-dimethoxy-benzo[b]thiophene-2-carboxylic acid (1H-tetrazol-5-yl)-amide]: the IC50 stood at 48 nM. The value for `COc1cc2sc(C(=O)Nc3nnn[nH]3)c(OCC3CC3)c2cc1OC` [Example 35, 3-Cyclopropylmethoxy-5,6-dimethoxy-benzo[b]thiophene-2-carboxylic acid (1H-tetrazol-5-yl)-amide] was 350 nM; that for `COc1cc2sc(C(=O)Nc3nnn[nH]3)c(OCCCC3CCCCC3)c2cc1OC` [Example 36, 3-(3-Cyclohexyl-propoxy)-5,6-dimethoxy-benzo[b]thiophene-2-carboxylic acid (1H-tetrazol-5-yl)-amide] was 23 nM; that for `COc1cc2sc(C(=O)Nc3nnn[nH]3)c(OCC3(C)CC3)c2cc1OC` [Example 37, 5,6-Dimethoxy-3-(1-methyl-cyclopropylmethoxy)-benzo[b]thiophene-2-carboxylic acid (1H-tetrazol-5-yl)-amide] was 51 nM. The same measure for `COc1cc2sc(C(=O)Nc3nnn[nH]3)c(OCC3CCC3)c2cc1OC` [Example 38, 3-Cyclobutylmethoxy-5,6-dimethoxy-benzo[b]thiophene-2-carboxylic acid (1H-tetrazol-5-yl)-amide]: 72 nM; for `COc1cc2sc(C(=O)Nc3nnn[nH]3)c(OC3CCCCCC3)c2cc1OC` [Example 39, 3-Cycloheptyloxy-5,6-dimethoxy-benzo[b]thiophene-2-carboxylic acid (1H-tetrazol-5-yl)-amide]: 37 nM; for `COc1cc2sc(C(=O)Nc3nnn[nH]3)c(OC3CCC3)c2cc1OC` [Example 40, 3-Cyclobutoxy-5,6-dimethoxy-benzo[b]thiophene-2-carboxylic acid (1H-tetrazol-5-yl)-amide]: 92 nM.

As to `COc1cc2sc(C(=O)Nc3nnn[nH]3)c(OC3CCOCC3)c2cc1OC` [Example 41, 5,6-Dimethoxy-3-(tetrahydro-pyran-4-yloxy)-benzo[b]thiophene-2-carboxylic acid (1H-tetrazol-5-yl)-amide], the concentration for half-maximal inhibition (IC50) was determined as 83 nM. Regarding `COc1cc2sc(C(=O)Nc3nnn[nH]3)c(OCC3CCCC3)c2cc1OC` [Example 43, 3-Cyclopentylmethoxy-5,6-dimethoxy-benzo[b]thiophene-2-carboxylic acid (1H-tetrazol-5-yl)-amide], the IC50 stood at 101 nM. The same measure for `CCC(Oc1c(C(=O)Nc2nnn[nH]2)sc2cc(OC)c(OC)cc12)C1CCCCC1` (stereo not shown) [Example 44, 3-(1-Cyclohexyl-propoxy)-5,6-dimethoxy-benzo[b]thiophene-2-carboxylic acid (1H-tetrazol-5-yl)-amide]: 160 nM; for `COc1cc2sc(C(=O)Nc3nnn[nH]3)c(OC3CCC(C)C(C)C3)c2cc1OC` (stereo not shown) [Example 45, 3-(3,4-Dimethyl-cyclohexyloxy)-5,6-dimethoxy-benzo[b]thiophene-2-carboxylic acid (1H-tetrazol-5-yl)-amide]: 52 nM. The value for `COc1cc2sc(C(=O)Nc3nnn[nH]3)c(OC3CC(C)CC(C)C3)c2cc1OC` (stereo not shown) [Example 46, 3-(3,5-Dimethyl-cyclohexyloxy)-5,6-dimethoxy-benzo[b]thiophene-2-carboxylic acid (1H-tetrazol-5-yl)-amide] was 30 nM; that for `COc1cc2sc(C(=O)Nc3nnn[nH]3)c(OC3CCC4CCCCC4C3)c2cc1OC` (stereo not shown) [Example 47, 3-(Decahydro-naphthalen-2-yloxy)-5,6-dimethoxy-benzo[b]thiophene-2-carboxylic acid (1H-tetrazol-5-yl)-amide] was 112 nM. The value for `COc1cc2sc(C(=O)Nc3nnn[nH]3)c(OC3CC(C)CC(C)(C)C3)c2cc1OC` (stereo not shown) [Example 48, 5,6-Dimethoxy-3-(3,3,5-trimethyl-cyclohexyloxy)-benzo[b]thiophene-2-carboxylic acid (1H-tetrazol-5-yl)-amide] was 170 nM; that for `COc1cc2sc(C(=O)Nc3nnn[nH]3)c(OC3CCN(Cc4ccccc4)CC3)c2cc1OC` [Example 49, 3-(1-Benzyl-piperidin-4-yloxy)-5,6-dimethoxy-benzo[b]thiophene-2-carboxylic acid (1H-tetrazol-5-yl)-amide] was 2550 nM. For `COc1cc2sc(C(=O)Nc3nnn[nH]3)c(OC3CCCC3)c2cc1OC` [Example 50, 3-Cyclopentyloxy-5,6-dimethoxy-benzo[b]thiophene-2-carboxylic acid (1H-tetrazol-5-yl)-amide], the 50% inhibitory concentration (IC50) came out at 120 nM. The value for `COc1cc2sc(C(=O)Nc3nn[nH]n3)c(OC3CCCCC3)c2cc1C` [Example 51, 3-Cyclohexyloxy-6-methoxy-5-methyl-benzo[b]thiophene-2-carboxylic acid (2H-tetrazol-5-yl)-amide] was 20 nM.
